Assay results taken from publication PMC10537356, “Analyzing the Material Basis of Anti-RSV Efficacy of Lonicerae japonicae Flos Based on the PK-PD Model” (Molecules, 2023).
Where two headings read alike, the source gives them in different places.

Experiments:
[1] = Pharmacokinetic study of 15 LJF components in plasma of RSV-infected mice after oral LJF extract (UHPLC-QQQ MS); type: in vivo; design: Tmax: unit: h
Description: The LJF (12.0 g) were pulverized and soaked in pure water at a solid: liquid ratio of 1:200 and followed by extraction for 30 min. Then, the LJF extract was obtained by filtration, centrifugation (5000 rpm, 10 min) and concentration. Finally, the remains were freeze-dried and stored at −20 °C for subsequent pharmacokinetic assays.
All mice fasted for 1 night after being acclimatized for 7 days (no water restriction) and were randomly separated into 3 groups with 6 mice in each group. One group of healthy mice was used as the normal control group and administered physiological saline; the model group was established by intranasal infusion of RSV (TCID50 = 10^−6, 35 μL/mouse) and administered physiological saline. Members of the drug group were orally administered with LJF extract at the dose of 12 g/kg after infecting RSV. At 0.25 h, 0.5 h, 0.75 h, 1 h, 1.5 h, 2 h, 3 h,4 h, 6 h, 8 h, 10 h, 12 h and 24 h after administration blood samples (approximately 500 μL) were collected into anticoagulant tubes. The blood samples were centrifuged at 3500 rpm, 4 °C for 10 min, and the plasma (upper layer) was separated and stored at −80 °C till analysis. At the same time, the lung tissue was removed, weighed and placed in the EP tube together with five times the weight of the lung tissue in PBS solution containing 1% PMSF. Subsequently, the tissue samples were homogenized using the tissue grinder, and centrifugation to obtain a supernatant for further examination.
An amount of 50 μL IS and 2 mL acetonitrile were mixed into 200 μL plasma, after which the mixture was centrifuged (12,000 rpm, 4 °C, 10 min) and dried with nitrogen. The residue was dissolved in 70% acetonitrile containing 1% formic acid, centrifuged and subsequently the supernatant (2 μL) was injected into the UHPLC-QQQ-MS system.
Agilent 1260 series (Santa Clara, CA, USA) chromatography system was equipped with a solvent degasser, G1311B quaternary pump and G1329B automated injector. The elution was performed on a Halo® C18 column (2.1 × 100 mm, 2.7 μm) at 30 °C, and the mobile phase consisted of 0.05% formic acid in water for solvent A and 0.05% formic acid in acetonitrile for solvent B at a flow rate of 0.3 mL/min. The gradient elution was as follows: 0–30 min at 5–25% B, 30–35 min at 25–55% B, 35–45 min at 55–70% B, 45–55 min at 70–100% B, and 5 μL for analysis.
The MS/MS analysis was performed by Agilent 6470 Triple Quadrupole LC/MS (Santa Clara, CA, USA) with an ESI source. MRM was selected for the detection of the standards and internal standard with a dwell time of 2 ms. The mass spectrometry conditions were optimized as follows: Nebulizer pressure: 50 psi; capillary: positive: 4000 V, negative: 3500 V; cell acceleration voltage: 5 V; gas temp: 350 °C and flow rate at 10 L/min. The acquired data were processed and analyzed by Mass Hunter Workstation quantitative analysis.
Fifteen standards and IS were optimized for mass conditions by the positive and negative ion modes of the chromatographic system, respectively. The pharmacokinetics of 15 chemical constituents in RSV-infected mice were assessed using the UPLC-QQQ-MS/MS method.
The pharmacokinetic parameters, including maximum concentration (Cmax), time to reach Cmax (Tmax), the elimination half-life (T1/2), mean residence time (MRT), and area under the concentration–time curve (AUC) were calculated using non-compartmental analysis by Phoenix 8.1.0.3530.

RSV = details: cited from earlier work
[2] = RSV mice plasma, oral LJF extract 12.0 g/kg
[3] = RSV mice plasma, oral LJF extract 12.0 g/kg, n = 6
[4] = mouse, plasma, po, 12 g/kg, RSV mice plasma, oral LJF extract 12.0 g/kg, n = 6, read-out: AUC(0–∞)
[5] = mouse, plasma, po, 12 g/kg, RSV mice plasma, oral LJF extract 12.0 g/kg, n = 6, read-out: Cmax
[6] = mouse, plasma, po, 12 g/kg, RSV mice plasma, oral LJF extract 12.0 g/kg, n = 6, read-out: MRT(0–t)
[7] = mouse, plasma, po, 12 g/kg, RSV mice plasma, oral LJF extract 12.0 g/kg, n = 6, read-out: T1/2 (converted)
[8] = mouse, RSV mice plasma, oral LJF extract 12.0 g/kg, n = 6, read-out: Tmax
[9] = mouse, plasma, po, 12 g/kg, RSV mice plasma, oral LJF extract 12.0 g/kg, n = 6, read-out: AUC(0–t)
[10] = mouse, in vivo, RSV mice plasma, oral LJF extract 12.0 g/kg, n = 6, read-out: Tmax
[11] = mouse, in vivo, RSV mice plasma, oral LJF extract 12.0 g/kg, n = 6, read-out: AUC(0–t)
[12] = mouse, in vivo, RSV mice plasma, oral LJF extract 12.0 g/kg, n = 6, read-out: AUC(0–∞)
[13] = mouse, in vivo, RSV mice plasma, oral LJF extract 12.0 g/kg, n = 6, read-out: Cmax
[14] = mouse, in vivo, RSV mice plasma, oral LJF extract 12.0 g/kg, n = 6, read-out: MRT(0–t)
[15] = mouse, in vivo, RSV mice plasma, oral LJF extract 12.0 g/kg, n = 6, read-out: T1/2 (converted)

Structure (SMILES) | shape of the concentration–time curve [1, 2] | AUC(0-inf) [1, 4] [µg·h/mL] | Cmax [1, 5] [µg/mL] | MRT last [1, 6] [h] | half-life [1, 7] [h] | Tmax [1, 8] [h] | AUC(0-t) [1, 9] [µg·h/mL] | further results
O=C(C=Cc1ccc(O)c(O)c1)OC1CC(O)(C(=O)O)CC(O)C1OC(=O)C=Cc1ccc(O)c(O)c1 (stereo not shown) [Isochlorogenic acid B] | double or multiple peaks | – | – | – | – | – | – | AUC(0–t) [1, 3]: 1.1 µg·h/mL; AUC(0–∞) [1, 3]: 1.74 µg·h/mL; MRT(0–t) [1, 3]: 7.35 ± 0.170 h; T1/2 [1, 3]: 24.4 ± 2.72 h; Tmax [1, 3]: 2.00 ± 0.00 h; Cmax ([1]; RSV mice plasma, oral LJF extract 12.0 g/kg, n = 6, read-out: Cmax): 0.415 ± 0.00469 µg/mL; anti-RSV effects (RSV; by inhibiting virus–cell fusion in the early stage and cell–cell fusion at the end of the RSV replication cycle): specific anti-RSV effects
C=C[C@H]1[C@H](O[C@@H]2O[C@H](CO)[C@@H](O)[C@H](O)[C@H]2O)OC=C(C(=O)OC)[C@H]1CC(=O)O [Secoxyloganin] | double or multiple peaks | 27.7 | 4.67 | 7.19 ± 0.139 | 8.14 ± 1.28 | 2 | – | –
O=C(O)/C=C/c1ccc(O)c(O)c1 [Caffeic acid] | double or multiple peaks | 3.28 | 0.779 ± 0.0192 | 5.92 ± 0.239 | 7.92 ± 1.1 | 2 | 2.92 | –
O=C(C=Cc1ccc(O)c(O)c1)OC1CC(O)(C(=O)O)CC(OC(=O)C=Cc2ccc(O)c(O)c2)C1O (stereo not shown) [Isochlorogenic acid A] | double or multiple peaks | 1.45 | 0.822 ± 0.0539 | 4.64 ± 0.289 | 26.6 ± 4.52 | 2 | 1.07 | –
O=C(C=Cc1ccc(O)c(O)c1)OC1C(O)CC(O)(C(=O)O)CC1O (stereo not shown) [Cryptochlorogenic acid] | double or multiple peaks | 1.32 | 1.41 | 2.79 ± 0.225 | 13.5 ± 2.98 | 2 | 1.26 | –
O=C(/C=C/c1ccc(O)c(O)c1)O[C@@H]1C[C@](O)(C(=O)O)C[C@@H](O)[C@H]1O [Chlorogenic acid] | double or multiple peaks | 5.9 | 5.6 | 2.95 ± 0.0749 | 26.1 ± 9.42 | 2 | 5.19 | inhibition of RSV infection (RSV; modulating TLR3, TBK1, IRF3 expression, decreasing IFN-β): could inhibit RSV infection
C=C[C@H]1[C@H](O[C@@H]2O[C@H](CO)[C@@H](O)[C@H](O)[C@H]2O)OC=C2C(=O)OC(O)C[C@H]21 (stereo partly shown) [Secologanic acid] | double or multiple peaks | 13.5 | 5.73 | 4.88 ± 0.0632 | 10.9 ± 2.46 | 2 | 12.1 | –
C[C@@H]1O[C@@H](OC[C@H]2O[C@@H](Oc3c(-c4ccc(O)c(O)c4)oc4cc(O)cc(O)c4c3=O)[C@H](O)[C@@H](O)[C@@H]2O)[C@H](O)[C@H](O)[C@H]1O [Rutin] | double or multiple peaks | – | – | – | – | – | – | time of first peak of plasma concentration [1, 2]: 30 min; time of second peak of plasma concentration [1, 2]: 2 h; AUC(0-t) ([1]; mouse, in vivo, po, 12 g/kg, RSV mice plasma, oral LJF extract 12.0 g/kg, n = 6, read-out: AUC(0–t)): 0.0313 ± 0.00434 µg·h/mL; AUC(0-inf) ([1]; mouse, in vivo, po, 12 g/kg, RSV mice plasma, oral LJF extract 12.0 g/kg, n = 6, read-out: AUC(0–∞)): 0.0343 ± 0.00333 µg·h/mL; Cmax ([1]; mouse, in vivo, po, 12 g/kg, RSV mice plasma, oral LJF extract 12.0 g/kg, n = 6, read-out: Cmax): 0.03 ± 0.00254 µg/mL; MRT last ([1]; mouse, in vivo, po, 12 g/kg, RSV mice plasma, oral LJF extract 12.0 g/kg, n = 6, read-out: MRT(0–t)): 1.51 ± 0.0291 h; half-life ([1]; mouse, in vivo, po, 12 g/kg, RSV mice plasma, oral LJF extract 12.0 g/kg, n = 6, read-out: T1/2 (converted)): 2.03 ± 1.1 h; Tmax [1, 10]: 0.5 h
C=C[C@H]1[C@H](O[C@@H]2O[C@H](CO)[C@@H](O)[C@H](O)[C@H]2O)OC=C2C(=O)OCC[C@]21O [Swertiamarin] | double or multiple peaks | 22.9 | 2.45 | 7.37 ± 0.54 | 5.15 ± 1.52 | 1 | 21.5 | –
C=C[C@H]1[C@H](O[C@@H]2O[C@H](CO)[C@@H](O)[C@H](O)[C@H]2O)OC=C2C(=O)OCC[C@H]21 [Sweroside] | – | – | – | – | – | – | – | Tmax ([1]; mouse, in vivo, po, 12 g/kg): 2 h; AUC(0-t) ([1]; mouse, in vivo, po, 12 g/kg, AUC(0–t)): 14.2 µg·h/mL; AUC(0-inf) ([1]; mouse, in vivo, po, 12 g/kg, AUC(0–∞)): 17.2 µg·h/mL; Cmax ([1]; mouse, in vivo, po, 12 g/kg, Cmax): 4.63 µg/mL; MRT last ([1]; mouse, in vivo, po, 12 g/kg, MRT(0–t)): 7.17 ± 0.274 h; half-life ([1]; mouse, in vivo, po, 12 g/kg, T1/2): 10.1 ± 2.25 h
O=c1cc(-c2ccc(O)c(O)c2)oc2cc(O[C@@H]3O[C@H](CO)[C@@H](O)[C@H](O)[C@H]3O)cc(O)c12 [Luteoloside] | double or multiple peaks | – | – | – | – | – | – | time of first peak of plasma concentration [1, 2]: 30 min; time of second peak of plasma concentration [1, 2]: 2 h; AUC(0-t) [1, 11]: 0.0158 ± 0.000991 µg·h/mL; AUC(0-inf) [1, 12]: 0.0159 ± 0.00101 µg·h/mL; Cmax [1, 13]: 0.0165 ± 0.00197 µg/mL; MRT last [1, 14]: 1.5 ± 0.0928 h; half-life [1, 15]: 0.343 ± 0.0915 h; Tmax [1, 10]: 0.5 h
O=c1c(O[C@@H]2O[C@H](CO)[C@@H](O)[C@H](O)[C@H]2O)c(-c2ccc(O)c(O)c2)oc2cc(O)cc(O)c12 [Isoquercitrin] | double or multiple peaks | – | – | – | – | – | – | AUC(0-t) [1, 11]: 0.0265 ± 0.00119 µg·h/mL; AUC(0-inf) [1, 12]: 0.0396 ± 0.00847 µg·h/mL; Cmax [1, 13]: 0.0265 ± 0.00116 µg/mL; MRT last [1, 14]: 1.5 ± 0.0366 h; half-life [1, 15]: 2.95 ± 1.72 h; Tmax [1, 10]: 0.5 h
O=c1cc(-c2ccc(O)c(O)c2)oc2cc(O)cc(O)c12 [Luteolin] | – | 0.0213 ± 0.00532 | 0.0196 ± 0.00611 | 2.12 ± 0.149 | 1.96 ± 0.746 | 2 | 0.0209 ± 0.00537 | –
